These results are taken from PMC6627067, “Probing Multi-Target Action of Phlorotannins as New Monoamine Oxidase Inhibitors and Dopaminergic Receptor Modulators with the Potential for Treatment of Neuronal Disorders” (Marine Drugs, 2019).

In assay [1] the target is T1, hMAO-B (Homo sapiens, UniProt P27338).
T1 sequence (P27338 1-520): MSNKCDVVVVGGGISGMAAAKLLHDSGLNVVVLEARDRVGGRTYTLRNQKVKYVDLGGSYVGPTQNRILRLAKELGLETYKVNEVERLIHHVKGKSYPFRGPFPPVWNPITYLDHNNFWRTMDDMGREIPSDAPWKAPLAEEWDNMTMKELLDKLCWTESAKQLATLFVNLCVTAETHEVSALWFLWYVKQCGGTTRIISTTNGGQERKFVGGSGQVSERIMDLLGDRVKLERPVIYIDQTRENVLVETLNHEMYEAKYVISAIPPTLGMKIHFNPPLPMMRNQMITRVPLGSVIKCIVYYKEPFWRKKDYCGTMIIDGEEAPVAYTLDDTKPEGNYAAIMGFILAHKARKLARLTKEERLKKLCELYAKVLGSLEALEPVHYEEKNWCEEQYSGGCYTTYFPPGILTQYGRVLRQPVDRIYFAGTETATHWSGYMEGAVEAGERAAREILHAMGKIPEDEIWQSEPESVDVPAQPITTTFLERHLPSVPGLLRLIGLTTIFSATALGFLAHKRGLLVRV
Nature of the assay: hMAO-B inhibition, chemiluminescent MAO-Glo assay and kinetic analysis. Type of assay: biochemical. Particulars: recombinant hMAO-B; mean ± SD, n = 3.

Assay [2] addresses T2, hMAO-A (Homo sapiens, UniProt P21397).
T2 sequence (P21397 1-527): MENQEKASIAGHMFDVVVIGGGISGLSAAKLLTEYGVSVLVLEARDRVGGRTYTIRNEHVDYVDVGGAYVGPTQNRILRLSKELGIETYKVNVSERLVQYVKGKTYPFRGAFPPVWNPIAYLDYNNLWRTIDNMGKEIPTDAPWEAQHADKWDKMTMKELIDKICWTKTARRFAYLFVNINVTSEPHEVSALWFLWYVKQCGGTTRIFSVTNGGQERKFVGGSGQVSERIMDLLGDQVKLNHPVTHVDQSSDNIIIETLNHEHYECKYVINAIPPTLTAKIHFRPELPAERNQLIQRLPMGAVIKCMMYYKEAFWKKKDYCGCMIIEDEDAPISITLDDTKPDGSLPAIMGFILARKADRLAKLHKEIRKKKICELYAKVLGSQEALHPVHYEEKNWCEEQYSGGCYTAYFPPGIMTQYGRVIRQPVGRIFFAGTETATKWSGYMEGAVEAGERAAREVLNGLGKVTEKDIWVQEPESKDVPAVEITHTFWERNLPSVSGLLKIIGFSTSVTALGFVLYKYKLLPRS
Briefly: hMAO-A inhibition, chemiluminescent MAO-Glo assay and kinetic analysis. Type of assay: biochemical.

The target in assay [3] is hNK1 (TACR1) (Homo sapiens, UniProt P25103). Briefly: GPCR cell-based functional assay, intracellular Ca2+ level, NK1. The settings on record: positive control; read-out: IC50 of standard antagonist, hNK1.
Chain of hNK1 (TACR1) (P25103 whole entry): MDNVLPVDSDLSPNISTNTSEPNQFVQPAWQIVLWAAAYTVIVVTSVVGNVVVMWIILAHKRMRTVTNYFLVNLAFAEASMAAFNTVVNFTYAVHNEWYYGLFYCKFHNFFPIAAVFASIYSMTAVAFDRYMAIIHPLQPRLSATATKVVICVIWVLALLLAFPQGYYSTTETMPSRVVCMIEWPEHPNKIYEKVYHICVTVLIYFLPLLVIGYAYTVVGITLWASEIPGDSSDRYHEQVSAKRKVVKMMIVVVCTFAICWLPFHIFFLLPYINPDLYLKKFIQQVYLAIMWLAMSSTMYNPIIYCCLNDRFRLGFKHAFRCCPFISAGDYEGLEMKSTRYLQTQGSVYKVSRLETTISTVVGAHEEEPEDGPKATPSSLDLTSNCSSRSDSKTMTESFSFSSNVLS

Each structure is given as a SMILES string. pIC50: −log10 of the molar value.

Regarding `Oc1cc(O)c2oc3cc(O)c4oc5cc(O)cc(O)c5oc4c3oc2c1` [Dioxinodehydroeckol, dioxinodehydroeckol], in assay [1], the pIC50 is less than 3.52 and the “IC50 hMAO-B” value is “no inhibitory activity”. In assay [2], this compound showed a negative-log IC50 (pIC50) of less than 3.52. Besides, the “IC50 hMAO-A” value in assay [2] (recombinant hMAO-A, mean ± SD, n = 3) is “no inhibitory activity”.
In the case of `FC(F)(F)c1cc(CO[C@H]2CCCN[C@H]2c2ccccc2)cc(C(F)(F)F)c1` [L-733,060, reference compound], in assay [3], the negative-log IC50 (pIC50) was 8.80.
